In the supplement of paper PMC5662764:
± gives the standard deviation of the averaged measurements.

What was measured:
Assay in all cases: normalised growth rate inhibition (GR value) relative to DMSO control (GR (1 = untreated growth, 0 = cytostasis, <0 = cytotoxic)); higher = less growth inhibition
Details in all cases: 72 h
MCF7 = tested on: MCF7
Experimental: (§1)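 Breast cancer cell lines (BT-20, Hs 578T, MCF 10A, MCF7, MDA-MB-231, SK-BR-3) were plated in 384-well plates and treated 24 h later with drugs at six concentrations (0.04-10 µM). Viable cells were counted by Hoechst/dead-cell-stain imaging at 0 and 72 h. Counts were normalised to DMSO controls on the same plate to give the relative cell count and the growth-rate inhibition (GR) value; technical plate triplicates were averaged for each biological replicate.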

HS578T = tested on: HS578T
Experimental: as §1

BT20 = tested on: BT20
Experimental: as §1

MDAMB231 = tested on: MDAMB231
Experimental: as §1

SKBR3 = tested on: SKBR3
Experimental: as §1

MCF10A = tested on: MCF10A
Experimental: as §1

| SMILES | normalised growth rate inhibition (MCF7; 0.04 µM) | normalised growth rate inhibition (MCF7; 0.12 µM) | normalised growth rate inhibition (MCF7; 0.37 µM) | normalised growth rate inhibition (MCF7; 1.11 µM) | normalised growth rate inhibition (MCF7; 3.33 µM) | normalised growth rate inhibition (MCF7; 10 µM) | normalised growth rate inhibition (HS578T; 0.04 µM) | normalised growth rate inhibition (HS578T; 0.12 µM) | normalised growth rate inhibition (HS578T; 0.37 µM) | normalised growth rate inhibition (HS578T; 1.11 µM) | normalised growth rate inhibition (HS578T; 3.33 µM) | normalised growth rate inhibition (HS578T; 10 µM) | normalised growth rate inhibition (BT20; 0.04 µM) | normalised growth rate inhibition (BT20; 0.12 µM) | normalised growth rate inhibition (BT20; 0.37 µM) | normalised growth rate inhibition (BT20; 1.11 µM) | normalised growth rate inhibition (BT20; 3.33 µM) | normalised growth rate inhibition (BT20; 10 µM) | normalised growth rate inhibition (MDAMB231; 0.04 µM) | normalised growth rate inhibition (MDAMB231; 0.12 µM) | normalised growth rate inhibition (MDAMB231; 0.37 µM) | normalised growth rate inhibition (MDAMB231; 1.11 µM) | normalised growth rate inhibition (MDAMB231; 3.33 µM) | normalised growth rate inhibition (MDAMB231; 10 µM) | normalised growth rate inhibition (SKBR3; 0.04 µM) | normalised growth rate inhibition (SKBR3; 0.12 µM) | normalised growth rate inhibition (SKBR3; 0.37 µM) | normalised growth rate inhibition (SKBR3; 1.11 µM) | normalised growth rate inhibition (SKBR3; 3.33 µM) | normalised growth rate inhibition (SKBR3; 10 µM) | normalised growth rate inhibition (MCF10A; 0.04 µM) | normalised growth rate inhibition (MCF10A; 0.12 µM) | normalised growth rate inhibition (MCF10A; 0.37 µM) | normalised growth rate inhibition (MCF10A; 1.11 µM) | normalised growth rate inhibition (MCF10A; 3.33 µM) | normalised growth rate inhibition (MCF10A; 10 µM) |
| --- | --- | --- | --- | --- | --- | --- | --- | --- | --- | --- | --- | --- | --- | --- | --- | --- | --- | --- | --- | --- | --- | --- | --- | --- | --- | --- | --- | --- | --- | --- | --- | --- | --- | --- | --- | --- |
| COc1cc(N2CCC(N3CCN(C)CC3)CC2)ccc1Nc1ncc(Cl)c(Nc2ccccc2S(=O)(=O)C(C)C)n1 [NVP-TAE684] | 0.553 ± 0.22 | 0.133 ± 0.13 | -0.0107 ± 0.12 | -0.108 ± 0.053 | -0.129 ± 0.021 | -0.198 ± 0.18 | 0.885 ± 0.041 | 0.61 ± 0.098 | 0.609 ± 0.073 | 0.351 ± 0.11 | 0.111 ± 0.042 | -0.201 ± 0.15 | 1.04 ± 0.012 | 0.776 ± 0.2 | 0.972 ± 0.088 | 0.829 ± 0.13 | 0.447 ± 0.3 | 0.133 ± 0.28 | 0.908 ± 0.035 | 0.737 ± 0.11 | 0.694 ± 0.089 | 0.389 ± 0.14 | 0.117 ± 0.14 | -0.228 ± 0.21 | 1.08 ± 0.047 | 0.782 ± 0.2 | 0.928 ± 0.069 | 0.691 ± 0.16 | 0.197 ± 0.2 | -0.232 ± 0.068 | 0.889 ± 0.06 | 0.754 ± 0.19 | 0.647 ± 0.14 | 0.555 ± 0.12 | 0.429 ± 0.14 | 0.123 ± 0.1 |
| Oc1cccc(-c2nc(N3CCOCC3)c3oc4ncccc4c3n2)c1 [PI-103] | 0.71 ± 0.14 | 0.379 ± 0.16 | 0.0687 ± 0.081 | -0.0473 ± 0.051 | -0.0779 ± 0.063 | -0.153 ± 0.1 | 0.676 ± 0.047 | 0.397 ± 0.075 | 0.249 ± 0.13 | 0.174 ± 0.16 | 0.148 ± 0.17 | 0.0951 ± 0.13 | 0.949 ± 0.084 | 0.723 ± 0.26 | 0.357 ± 0.32 | 0.0983 ± 0.17 | -0.0552 ± 0.017 | -0.115 ± 0.034 | 0.772 ± 0.075 | 0.637 ± 0.1 | 0.42 ± 0.25 | 0.371 ± 0.12 | 0.291 ± 0.18 | 0.0948 ± 0.18 | 0.9 ± 0.045 | 0.579 ± 0.1 | 0.221 ± 0.052 | -0.00817 ± 0.15 | -0.0811 ± 0.2 | -0.137 ± 0.17 | 0.96 ± 0.066 | 0.76 ± 0.22 | 0.427 ± 0.24 | 0.196 ± 0.067 | 0.125 ± 0.032 | 0.0826 ± 0.033 |
| CCCS(=O)(=O)Nc1ccc(F)c(C(=O)c2c[nH]c3ncc(Cl)cc23)c1F [PLX-4720] | 1.04 ± 0.078 | 0.944 ± 0.028 | 1.02 ± 0.049 | 0.991 ± 0.02 | 0.851 ± 0.097 | 0.5 ± 0.16 | 1.03 ± 0.033 | 1.09 ± 0.044 | 1.12 ± 0.079 | 1.12 ± 0.11 | 1.04 ± 0.086 | 0.781 ± 0.092 | 1.01 ± 0.032 | 0.988 ± 0.027 | 0.959 ± 0.051 | 0.882 ± 0.16 | 0.685 ± 0.1 | 0.409 ± 0.05 | 0.989 ± 0.06 | 1.01 ± 0.054 | 1 ± 0.032 | 0.929 ± 0.041 | 0.822 ± 0.073 | 0.63 ± 0.21 | 0.994 ± 0.015 | 0.999 ± 0.026 | 1.04 ± 0.15 | 1.06 ± 0.06 | 0.61 ± 0.1 | 0.254 ± 0.26 | 0.998 ± 0.019 | 0.99 ± 0.039 | 0.982 ± 0.054 | 1 ± 0.068 | 1 ± 0.066 | 0.896 ± 0.056 |
| C=CC(=O)Nc1cc(-n2c(=O)ccc3cnc4ccc(-c5cn[nH]c5)cc4c32)ccc1C [QL-X-138] | 0.496 ± 0.22 | 0.41 ± 0.2 | 0.31 ± 0.098 | 0.205 ± 0.094 | 0.145 ± 0.061 | -0.0977 ± 0.021 | 0.841 ± 0.034 | 0.76 ± 0.066 | 0.639 ± 0.024 | 0.501 ± 0.018 | 0.379 ± 0.061 | -0.0527 ± 0.082 | 0.727 ± 0.052 | 0.726 ± 0.046 | 0.631 ± 0.11 | 0.535 ± 0.17 | 0.381 ± 0.18 | -0.222 ± 0.053 | 0.824 ± 0.13 | 0.834 ± 0.062 | 0.768 ± 0.059 | 0.672 ± 0.12 | 0.48 ± 0.13 | -0.135 ± 0.11 | 0.463 ± 0.16 | 0.413 ± 0.11 | 0.233 ± 0.13 | 0.163 ± 0.09 | 0.0588 ± 0.1 | -0.231 ± 0.21 | 1.01 ± 0.063 | 0.981 ± 0.074 | 0.887 ± 0.15 | 0.791 ± 0.19 | 0.505 ± 0.29 | -0.112 ± 0.031 |
| C=CC(=O)N1CCc2ccc(-n3c(=O)ccc4cnc5ccc(-c6cnn(C)c6)cc5c43)cc21 [QL-XII-47] | 0.57 ± 0.16 | 0.35 ± 0.25 | 0.0387 ± 0.084 | -0.0941 ± 0.045 | -0.109 ± 0.017 | -0.188 ± 0.12 | 0.895 ± 0.091 | 0.854 ± 0.11 | 0.713 ± 0.15 | 0.438 ± 0.24 | 0.153 ± 0.14 | -0.127 ± 0.12 | 0.669 ± 0.29 | 0.618 ± 0.31 | 0.351 ± 0.28 | 0.0671 ± 0.23 | -0.135 ± 0.077 | -0.259 ± 0.091 | 0.659 ± 0.12 | 0.541 ± 0.14 | 0.337 ± 0.15 | 0.109 ± 0.14 | -0.0169 ± 0.082 | -0.128 ± 0.12 | 0.516 ± 0.042 | 0.35 ± 0.12 | 0.0964 ± 0.17 | -0.108 ± 0.14 | -0.26 ± 0.18 | -0.3 ± 0.16 | 0.969 ± 0.021 | 0.953 ± 0.024 | 0.867 ± 0.11 | 0.683 ± 0.26 | 0.428 ± 0.32 | -0.127 ± 0.14 |
| Cc1cc(C(C)Nc2ccccc2)c2nc(N3CCOCC3)cc(=O)n2c1 (configuration not stated) [TGX-221] | 0.82 ± 0.073 | 0.848 ± 0.018 | 0.96 ± 0.013 | 0.98 ± 0.034 | 0.79 ± 0.15 | 0.822 ± 0.076 | 0.9256 ± 0.0041 | 0.902 ± 0.044 | 0.91 ± 0.02 | 0.891 ± 0.029 | 0.597 ± 0.28 | 0.698 ± 0.093 | 0.914 ± 0.05 | 0.954 ± 0.032 | 1.01 ± 0.021 | 1.02 ± 0.052 | 1.06 ± 0.054 | 1.05 ± 0.026 | 0.779 ± 0.087 | 0.816 ± 0.083 | 0.826 ± 0.086 | 0.868 ± 0.042 | 0.691 ± 0.19 | 0.868 ± 0.03 | 0.681 ± 0.072 | 0.789 ± 0.049 | 0.907 ± 0.034 | 0.963 ± 0.036 | 0.961 ± 0.023 | 0.888 ± 0.03 | 0.968 ± 0.03 | 0.972 ± 0.039 | 0.971 ± 0.027 | 0.964 ± 0.033 | 0.591 ± 0.38 | 0.957 ± 0.08 |
| Nc1cccc(-c2cc3c(Oc4cccc(O)c4)ncnc3[nH]2)c1 [TWS-119] | 1.06 ± 0.061 | 0.984 ± 0.053 | 0.991 ± 0.071 | 0.963 ± 0.079 | 0.616 ± 0.079 | -0.165 ± 0.1 | 1.02 ± 0.014 | 0.9855 ± 0.0042 | 0.978 ± 0.011 | 0.8808 ± 0.0081 | 0.707 ± 0.057 | -0.081 ± 0.15 | 1.02 ± 0.034 | 0.994 ± 0.056 | 0.971 ± 0.055 | 0.885 ± 0.11 | 0.696 ± 0.096 | 0.0129 ± 0.081 | 0.975 ± 0.056 | 0.961 ± 0.07 | 0.929 ± 0.084 | 0.785 ± 0.056 | 0.619 ± 0.021 | 0.0363 ± 0.044 | 1.09 ± 0.077 | 0.989 ± 0.074 | 1.06 ± 0.044 | 1.02 ± 0.043 | 0.48 ± 0.095 | -0.212 ± 0.26 | 1.02 ± 0.013 | 1.01 ± 0.011 | 1.02 ± 0.0082 | 1.02 ± 0.024 | 0.912 ± 0.11 | 0.0326 ± 0.084 |
